Experimental data from ChEMBL document CHEMBL4334464, “From Phenylthiazoles to Phenylpyrazoles: Broadening the Antibacterial Spectrum toward Carbapenem-Resistant Bacteria” (J Med Chem, 2019).
≈ marks a conversion by molar mass, not a printed value. Calls of active or inactive are those of the source. The rule behind the calls is not given here.

Legend:
[1] = test system: Staphylococcus aureus; assay: Bactericidal activity against methicillin-resistant Staphylococcus aureus NRS123-USA400 clinical isolates at 5 times MIC incubated over 24 hrs followed by replating on tryptic soy agar plate and further incubated for 18 to 20 hrs by time kill assay; format: functional, organism-based
[2] = test system: Escherichia coli; assay: Antibacterial activity against Escherichia coli ATCC 35150 clinical isolates after 18 to 20 hrs in aerobic condition by CLSI-based broth microdilution assay; format: functional
[3] = test system: Salmonella enteritidis; assay: Antibacterial activity against Salmonella enteritidis ATCC 13076 clinical isolates after 18 to 20 hrs in aerobic condition by CLSI-based broth microdilution assay; format: functional, Salmonella enterica subsp. enterica serovar Enteritidis; settings: Salmonella enterica
[4] = test system: Staphylococcus aureus; assay: Antibacterial activity against Methicillin-sensitive Staphylococcus aureus NRS107 clinical isolates after 18 to 20 hrs in aerobic condition by CLSI protocol based broth microdilution assay; format: functional
[5] = test system: Escherichia coli; assay: Ratio of MBC to MIC for Escherichia coli BW25113 clinical isolates; format: functional
[6] = test system: Staphylococcus aureus; assay: Antibacterial activity against Methicillin-resistant Staphylococcus aureus NRS385-USA500 clinical isolates after 18 to 20 hrs in aerobic condition by CLSI protocol based broth microdilution assay; format: functional
[7] = test system: Staphylococcus aureus; assay: Antibacterial activity against linezolid-resistant/Methicillin-resistant Staphylococcus aureus NRS119 clinical isolates after 18 to 20 hrs in aerobic condition by CLSI protocol based broth microdilution assay; format: functional
[8] = test system: Staphylococcus aureus; assay: Antibacterial activity against methicillin-resistant Staphylococcus aureus NRS384-USA300 clinical isolates after 18 to 20 hrs in aerobic condition by CLSI protocol based broth microdilution assay; format: functional
[9] = test system: Listeria monocytogenes; assay: Ratio of MBC to MIC for Listeria monocytogenes ATCC 19111 clinical isolates; format: functional
[10] = test system: Klebsiella pneumoniae; assay: Antibacterial activity against carbapenem-resistant Klebsiella pneumoniae ATCC BAA-2146 clinical isolates after 18 to 20 hrs in aerobic condition by CLSI-based broth microdilution assay; format: functional
[11] = test system: Salmonella typhimurium; assay: Antibacterial activity against Salmonella typhimurium ATCC 700720 after 18 to 20 hrs in aerobic condition by CLSI-based broth microdilution assay; format: functional, Salmonella enterica subsp. enterica serovar Typhimurium; settings: Salmonella enterica
[12] = test system: Escherichia coli; assay: Inhibition of 6His tagged Escherichia coli UPPP expressed in Escherichia coli C41(DE3) cells preincubated for 15 mins followed by FPP substrate addition and measured after 20 mins by malachite green reagent based assay
[13] = test system: Acinetobacter baumannii; assay: Ratio of MBC to MIC for Acinetobacter baumannii NR 17786 clinical isolates; format: functional
[14] = test system: Acinetobacter baumannii; assay: Antibacterial activity against Acinetobacter baumannii ATCC BAA 1141 clinical isolates after 18 to 20 hrs in aerobic condition by CLSI-based broth microdilution assay; format: functional
[15] = test system: Salmonella enteritidis; assay: Ratio of MBC to MIC for Salmonella enteritidis ATCC 13076 clinical isolates; format: functional, Salmonella enterica subsp. enterica serovar Enteritidis
[16] = test system: Pseudomonas aeruginosa; assay: Ratio of MBC to MIC for Pseudomonas aeruginosa ATCC 25619 clinical isolates; format: functional
[17] = test system: Salmonella enterica; assay: Antibacterial activity against Salmonella enterica NR-170 clinical isolates after 18 to 20 hrs in aerobic condition by CLSI-based broth microdilution assay; format: functional
[18] = test system: Escherichia coli; assay: Antibacterial activity against Escherichia coli BW25113 clinical isolates after 18 to 20 hrs in aerobic condition by CLSI-based broth microdilution assay; format: functional
[19] = test system: Acinetobacter baumannii; assay: Antibacterial activity against Acinetobacter baumannii NR 17785 clinical isolates after 18 to 20 hrs in aerobic condition by CLSI-based broth microdilution assay; format: functional
[20] = test system: Staphylococcus aureus; assay: Antibacterial activity against Methicillin-sensitive Staphylococcus aureus ATCC 6538 clinical isolates after 18 to 20 hrs in aerobic condition by CLSI protocol based broth microdilution assay; format: functional
[21] = test system: Pseudomonas aeruginosa; assay: Ratio of MBC to MIC for Pseudomonas aeruginosa ATCC 15442 clinical isolates; format: functional
[22] = test system: Escherichia coli; assay: Antimicrobial activity against Escherichia coli JW55031 harboring deltatolC mutant after 18 to 20 hrs in aerobic condition by CLSI protocol based broth microdilution assay; format: functional
[23] = test system: Shigella flexneri; assay: Ratio of MBC to MIC for Shigella flexneri ATCC 9199 clinical isolates; format: functional
[24] = test system: Streptococcus pneumoniae; assay: Ratio of MBC to MIC for cephalosporin-resistant Streptococcus pneumoniae ATCC 51916 clinical isolates; format: functional
[25] = test system: Staphylococcus aureus; assay: Antibacterial activity against Methicillin-resistant Staphylococcus aureus USA700-NRS386 clinical isolates after 18 to 20 hrs in aerobic condition by CLSI protocol based broth microdilution assay; format: functional
[26] = test system: Klebsiella pneumoniae; assay: Antibacterial activity against carbapenem-resistant Klebsiella pneumoniae ATCC BAA-1705 clinical isolates after 18 to 20 hrs in aerobic condition by CLSI-based broth microdilution assay; format: functional
[27] = test system: Streptococcus pneumoniae; assay: Antibacterial activity against cephalosporin-resistant Streptococcus pneumoniae ATCC 51916 clinical isolates after 18 to 20 hrs by CLSI-based broth microdilution assay; format: functional
[28] = test system: Escherichia coli; assay: Antibacterial activity against Escherichia coli ATCC 25922 clinical isolates after 18 to 20 hrs in aerobic condition by CLSI-based broth microdilution assay; format: functional
[29] = test system: Escherichia coli; assay: Ratio of MBC to MIC for Escherichia coli ATCC 1411 clinical isolates; format: functional
[30] = test system: Pseudomonas aeruginosa; assay: Ratio of MBC to MIC for Pseudomonas aeruginosa ATCC 9027 clinical isolates; format: functional
[31] = test system: Klebsiella pneumoniae; assay: Ratio of MBC to MIC for Klebsiella pneumoniae BAA-1144 clinical isolates; format: functional
[32] = test system: Klebsiella pneumoniae; assay: Ratio of MBC to MIC for Klebsiella pneumoniae BAA-1706 after 18 to 20 hrs in aerobic condition by CLSI-based broth microdilution assay; format: functional
[33] = test system: Acinetobacter baumannii; assay: Ratio of MBC to MIC for Acinetobacter baumannii NR 17785 clinical isolates; format: functional
[34] = test system: Staphylococcus epidermidis; assay: Antibacterial activity against Staphylococcus epidermidis NRS101 after 18 to 20 hrs in aerobic condition by CLSI-based broth microdilution assay; format: functional
[35] = test system: Escherichia coli; assay: Ratio of MBC to MIC for Escherichia coli ATCC 35150 clinical isolates; format: functional
[36] = test system: Acinetobacter baumannii; assay: Antibacterial activity against Acinetobacter baumannii ATCC 19606 clinical isolates after 18 to 20 hrs in aerobic condition by CLSI-based broth microdilution assay; format: functional; settings: ATCC 19606 = CIP 70.34 = JCM 6841
[37] = Antibacterial activity against Enterobacter cloacae subsp. cloacae ATCC BAA-1143 clinical isolates after 18 to 20 hrs in aerobic condition by CLSI-based broth microdilution assay; format: functional
[38] = test system: Staphylococcus epidermidis; assay: Ratio of MBC to MIC for Staphylococcus epidermidis NRS101 clinical isolates; format: functional
[39] = test system: Salmonella enterica; assay: Ratio of MBC to MIC for Salmonella enterica NR-170 clinical isolates; format: functional
[40] = test system: Escherichia coli; assay: microbe, parasite or virus in culture; settings: ATCC 1411
Description: Antibacterial activity against Escherichia coli ATCC 1411 clinical isolates after 18 to 20 hrs in aerobic condition by CLSI-based broth microdilution assay

[41] = test system: Salmonella typhimurium; assay: Ratio of MBC to MIC for Salmonella typhimurium ATCC 700720 clinical isolates; format: functional, Salmonella enterica subsp. enterica serovar Typhimurium
[42] = test system: Enterobacter cloacae subsp. cloacae; assay: Ratio of MBC to MIC for Enterobacter cloacae subsp. cloacae ATCC BAA-1143 clinical isolates; format: functional
[43] = test system: Pseudomonas aeruginosa; assay: microbe, parasite or virus in culture; settings: ATCC 25619
Description: Antibacterial activity against Pseudomonas aeruginosa ATCC 25619 clinical isolates after 18 to 20 hrs in aerobic condition by CLSI-based broth microdilution assay

[44] = test system: Enterococcus faecium; assay: Ratio of MBC to MIC for vancomycin-resistant Enterococcus faecium ATCC 700221 clinical isolates; format: functional

## CCCC#Cc1ccc(-n2ncc(/C(C)=N/NC(=N)N)c2C)cc1
[1]
  Activity: Active
[2]
  MIC: 8 µg/mL (≈ 24.8 µM)
[3]
  MIC: 16 µg/mL (≈ 49.6 µM)
[4]
  MIC: 4 µg/mL (≈ 12.4 µM)
[5]
  Ratio: >=1
[6]
  MIC: 2 µg/mL (≈ 6.2 µM)
[7]
  MIC: 2 µg/mL (≈ 6.2 µM)
[8]
  MIC: 4 µg/mL (≈ 12.4 µM)
[9]
  Ratio: <3
[10]
  MIC: 32 µg/mL (≈ 99.3 µM)
[11]
  MIC: 16 µg/mL (≈ 49.6 µM)
[12]
  inhibition: inactive
[13]
  Ratio: >=1
[14]
  MIC: 8 µg/mL (≈ 24.8 µM)
[15]
  Ratio: >=1
[16]
  Ratio: >=1
[17]
  MIC: 16 µg/mL (≈ 49.6 µM)
[18]
  MIC: 8 µg/mL (≈ 24.8 µM)
[19]
  MIC: 8 µg/mL (≈ 24.8 µM)
[20]
  MIC: 2 µg/mL (≈ 6.2 µM)
[21]
  Ratio: >=1
[22]
  MIC: 4 µg/mL (≈ 12.4 µM)
[23]
  Ratio: >=1
[24]
  Ratio: <3
[25]
  MIC: 4 µg/mL (≈ 12.4 µM)
[26]
  MIC: 16 µg/mL (≈ 49.6 µM)
[27]
  MIC: 4 µg/mL (≈ 12.4 µM)
[28]
  MIC: 8 µg/mL (≈ 24.8 µM)
[29]
  Ratio: >=1
[30]
  Ratio: >=1
[31]
  Ratio: >=1
[32]
  Ratio: >=1
[33]
  Ratio: >=1
[34]
  MIC: 4 µg/mL (≈ 12.4 µM)
[35]
  Ratio: >=1
[36]
  MIC: 8 µg/mL (≈ 24.8 µM)
[37]
  MIC: 16 µg/mL (≈ 49.6 µM)
[38]
  Ratio: <3
[39]
  Ratio: >=1
[40]
  MIC: 16 µg/mL (≈ 49.6 µM)
[41]
  Ratio: >=1
[42]
  Ratio: > 1
[43]
  MIC: 16 µg/mL (≈ 49.6 µM)
[44]
  Ratio: <3

## C/C(=N\NC(=N)N)c1cnn(-c2ccc(C#CC3(O)CCCCC3)cc2)c1C
[1]
  Activity: Active
[2]
  MIC: 16 µg/mL (≈ 42.3 µM)
[3]
  MIC: 32 µg/mL (≈ 84.5 µM)
[4]
  MIC: 4 µg/mL (≈ 10.6 µM)
[5]
  Ratio: >=1
[6]
  MIC: 2 µg/mL (≈ 5.28 µM)
[7]
  MIC: 2 µg/mL (≈ 5.28 µM)
[8]
  MIC: 2 µg/mL (≈ 5.28 µM)
[9]
  Ratio: <3
[10]
  MIC: > 64 µg/mL
[11]
  MIC: 64 µg/mL (≈ 169 µM)
[13]
  Ratio: >=1
[14]
  MIC: 8 µg/mL (≈ 21.1 µM)
[15]
  Ratio: >=1
[16]
  Ratio: >=1
[17]
  MIC: 16 µg/mL (≈ 42.3 µM)
[18]
  MIC: 8 µg/mL (≈ 21.1 µM)
[19]
  MIC: 8 µg/mL (≈ 21.1 µM)
[20]
  MIC: 2 µg/mL (≈ 5.28 µM)
[21]
  Ratio: >=1
[22]
  MIC: 4 µg/mL (≈ 10.6 µM)
[23]
  Ratio: >=1
[24]
  Ratio: <3
[25]
  MIC: 2 µg/mL (≈ 5.28 µM)
[26]
  MIC: 64 µg/mL (≈ 169 µM)
[27]
  MIC: 4 µg/mL (≈ 10.6 µM)
[28]
  MIC: 8 µg/mL (≈ 21.1 µM)
[29]
  Ratio: >=1
[30]
  Ratio: >=1
[31]
  Ratio: >=1
[32]
  Ratio: >=1
[33]
  Ratio: >=1
[34]
  MIC: 4 µg/mL (≈ 10.6 µM)
[35]
  Ratio: >=1
[36]
  MIC: 4 µg/mL (≈ 10.6 µM)
[37]
  MIC: 16 µg/mL (≈ 42.3 µM)
[38]
  Ratio: <3
[39]
  Ratio: >=1
[40]
  MIC: 32 µg/mL (≈ 84.5 µM)
[41]
  Ratio: >=1
[42]
  Ratio: > 1
[43]
  MIC: 32 µg/mL (≈ 84.5 µM)
[44]
  Ratio: <3

## CCCCCC#Cc1ccc(-n2ncc(/C(C)=N/NC3=NCCN3)c2C)cc1
[1]
  Activity: Active
[2]
  MIC: > 128 µg/mL
[3]
  MIC: > 128 µg/mL
[4]
  MIC: 4 µg/mL (≈ 10.6 µM)
[5]
  Ratio: >=1
[6]
  MIC: 2 µg/mL (≈ 5.31 µM)
[7]
  MIC: 2 µg/mL (≈ 5.31 µM)
[8]
  MIC: 2 µg/mL (≈ 5.31 µM)
[9]
  Ratio: <3
[11]
  MIC: > 128 µg/mL
[12]
  inhibition: inactive
[13]
  Ratio: >=1
[14]
  MIC: > 128 µg/mL
[15]
  Ratio: >=1
[16]
  Ratio: >=1
[17]
  MIC: > 128 µg/mL
[18]
  MIC: > 128 µg/mL
[19]
  MIC: > 128 µg/mL
[20]
  MIC: 2 µg/mL (≈ 5.31 µM)
[21]
  Ratio: >=1
[22]
  MIC: 2 µg/mL (≈ 5.31 µM)
[23]
  Ratio: >=1
[24]
  Ratio: <3
[25]
  MIC: 2 µg/mL (≈ 5.31 µM)
[27]
  MIC: 4 µg/mL (≈ 10.6 µM)
[28]
  MIC: > 128 µg/mL
[29]
  Ratio: >=1
[30]
  Ratio: >=1
[31]
  Ratio: >=1
[32]
  Ratio: >=1
[33]
  Ratio: >=1
[34]
  MIC: 2 µg/mL (≈ 5.31 µM)
[35]
  Ratio: >=1
[36]
  MIC: 8 µg/mL (≈ 21.2 µM)
[37]
  MIC: > 128 µg/mL
[38]
  Ratio: <3
[39]
  Ratio: >=1
[40]
  MIC: > 128 µg/mL
[41]
  Ratio: >=1
[42]
  Ratio: > 1
[43]
  MIC: > 128 µg/mL
[44]
  Ratio: <3
